Results published in US4946841A, “Pyridazine 3,5-dihydroxy carboxylic acids and derivatives thereof, the use thereof for hypercholesterolemia” (Hoechst Aktiengesellachaft, priority 1988, dated 1990).
Read-outs that look alike come from different tables or passages of the source.

Legend:
[1] = biological target: T1, HMG-CoA reductase (Rattus norvegicus, UniProt P51639); test: HMG-CoA reductase activity in enzyme preparations; assay type: biochemical, rats; settings: solubilized enzyme from rat liver microsomes, 14C-HMG-CoA substrate; read-out: IC50, molar concentration of the compound required for 50% inhibition of HMG-CoA reductase
T1 construct: solubilized enzyme preparations from liver microsomes of rats; from tissue; host or cells: rat liver microsomes, solubilized; rats induced with cholestyramine (Cuemid)
T1 sequence (P51639 1-887): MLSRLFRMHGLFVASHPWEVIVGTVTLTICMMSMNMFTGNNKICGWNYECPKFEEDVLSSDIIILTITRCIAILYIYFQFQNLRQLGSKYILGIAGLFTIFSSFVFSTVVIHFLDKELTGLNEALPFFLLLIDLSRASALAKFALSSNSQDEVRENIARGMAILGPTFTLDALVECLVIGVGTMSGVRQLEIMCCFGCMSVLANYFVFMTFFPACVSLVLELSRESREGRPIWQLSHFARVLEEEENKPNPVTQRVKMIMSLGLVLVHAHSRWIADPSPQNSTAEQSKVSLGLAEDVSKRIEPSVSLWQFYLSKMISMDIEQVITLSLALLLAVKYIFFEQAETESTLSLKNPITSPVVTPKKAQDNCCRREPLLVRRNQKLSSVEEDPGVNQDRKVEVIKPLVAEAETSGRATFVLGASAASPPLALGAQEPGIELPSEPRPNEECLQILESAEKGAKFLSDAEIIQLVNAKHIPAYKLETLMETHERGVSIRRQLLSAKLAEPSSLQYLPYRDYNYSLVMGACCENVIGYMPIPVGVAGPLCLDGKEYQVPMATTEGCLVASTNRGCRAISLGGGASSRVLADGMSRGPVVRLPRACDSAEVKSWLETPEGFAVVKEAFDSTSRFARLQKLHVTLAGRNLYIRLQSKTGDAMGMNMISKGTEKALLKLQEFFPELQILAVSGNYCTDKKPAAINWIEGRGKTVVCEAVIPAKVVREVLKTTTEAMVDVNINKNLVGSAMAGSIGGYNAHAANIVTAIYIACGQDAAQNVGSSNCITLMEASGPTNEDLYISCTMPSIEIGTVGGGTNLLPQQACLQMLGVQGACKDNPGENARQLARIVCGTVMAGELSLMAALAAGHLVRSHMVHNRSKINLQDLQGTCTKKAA
Method: The HMG-CoA reductase activity was measured on solubilized enzyme preparations from liver microsomes of rats which, after changing over the day/night rhythm, were induced with cholestyramine (®Cuemid).
The substrate used was (S,R)^14 C-HMG-CoA, and the concentration of NADPH was maintained during the incubation by a regenerating system. ^14 C-mevalonate was removed from the substrate and other products (for example ^14 C-HMG) by column elution, with the elution profile of each individual sample being determined. ^3 H-mevalonate was not included in every test because the determination was of the relative inhibitory effect. In each series of tests, the enzyme-free control, the enzyme-containing normal mixture (=100%) and one with added product, final concentration 10^-5 to 10^-9 M, were treated together. Each individual value was formed as the mean of 3 parallel samples. The significance of the differences between the means for product-free and product-containing samples was assessed by the t test.
The method described above was used to determine the figures for the inhibition of HMG-CoA reductase by the compounds according to the invention (IC50 /mol/liter signifies the molar concentration of the compound required for 50% inhibition): […]

[2] = system: cholesterol biosynthesis in HEP-G2 cells; test: Inhibition of cholesterol biosynthesis in cell cultures of HEP-G2 cells; assay type: cell-based; settings: Homo sapiens, HepG2, 14C-acetate precursor, read-out: IC50, concentration which brings about 50% inhibition of cholesterol biosynthesis
Method: Monolayers of HEP-G2 cells in lipoprotein-free nutrient medium were pre-incubated with appropriate concentrations of the test substances for a defined time (for example 1 hour) and, after addition of the labeled precursor, for example sodium ^14 C-acetate, incubation was continued (for example for 3 hours). After addition of an internal standard (^3 H-cholesterol) a portion of the cells was hydrolyzed with alkali. The lipids from the hydrolyzed cells were extracted with chloroform/methanol.
This Lipid mixture was, after addition of carrier cholesterol, subjected to preparative thin-layer chromatography, the cholesterol band was visualized with iodine vapor and then isolated, and the amount of ^14 C-cholesterol formed from the ^14 C-precursor was determined by scintigraphy. Cellular protein was determined in an aliquot of the cells, so that it is possible to calculate the amount of ^14 C-cholesterol formed per unit time per mg of cellular protein. Comparison of this figure with the amount of ^14 C-cholesterol formed per mg of cellular protein and unit time in a culture treated in the same way but free of test substance yielded the inhibitory effect of the particular test product on cholesterol biosynthesis of HEP-G2 cell cultures. […]

[3] = rat; cited from earlier work
[4] = tests on humans; cited from earlier work

| IC50 [1] | SMILES | IC50 [2] | cholesterol-lowering action [3] | cholesterol-lowering action [4] |
| --- | --- | --- | --- | --- |
| 1.7 nM | CC(C)c1nnc(-c2ccc(F)cc2)c(-c2ccc(F)cc2)c1/C=C/[C@@H](O)C[C@@H](O)CC(=O)O (relative stereo) [Example 13a, Sodium 7-[3,4-di(4-fluorophenyl)-6-isopropylpyridazin-5-yl]-3,5-dihydroxy-6-heptenoate] | 50 nM | – | – |
| – | CC(O)(CC(=O)O)CC(=O)O [3-Hydroxy-3-methylglutaric acid] | – | significant cholesterol-lowering action | significant cholesterol-lowering action |
| 1.3 nM | CC(C)c1nnc(-c2ccc(F)cc2)c(-c2ccc(F)cc2)c1/C=C/[C@@H](O)C[C@@H](O)CC(=O)O [Example 19a, Sodium 7-[3,4-di(4-fluorophenyl)-6-isopropylpyridazin-5-yl]-3(R),5(S)-dihydroxy-6(E)-heptenoate] | 25 nM | – | – |
